Measurements reported in ChEMBL document CHEMBL4627342, “Novel pyridone EP4 agonists featuring allylic alcohol ω-chains” (Bioorg Med Chem Lett, 2020).

What was measured:
Assay type in all cases: functional, cell-based
[1] = biological target: T1, Prostaglandin E2 receptor EP4 subtype (Homo sapiens, UniProt P35408); test: Agonist activity at human EP4 receptor expressed in HEK293 cells by calcium-5 dye based FLIPR assay
[2] = biological target: T1, Prostaglandin E2 receptor EP4 subtype; test: Agonist activity at human EP4 receptor expressed in HEK293 cells by calcium-5 dye based FLIPR assay relative to control
[3] = biological target: T2, Prostaglandin E2 receptor EP1 subtype (Homo sapiens, UniProt P34995); test: Agonist activity at human EP1 receptor expressed in HEK293 cells by calcium-5 dye based FLIPR assay
T2 sequence (P34995 whole entry): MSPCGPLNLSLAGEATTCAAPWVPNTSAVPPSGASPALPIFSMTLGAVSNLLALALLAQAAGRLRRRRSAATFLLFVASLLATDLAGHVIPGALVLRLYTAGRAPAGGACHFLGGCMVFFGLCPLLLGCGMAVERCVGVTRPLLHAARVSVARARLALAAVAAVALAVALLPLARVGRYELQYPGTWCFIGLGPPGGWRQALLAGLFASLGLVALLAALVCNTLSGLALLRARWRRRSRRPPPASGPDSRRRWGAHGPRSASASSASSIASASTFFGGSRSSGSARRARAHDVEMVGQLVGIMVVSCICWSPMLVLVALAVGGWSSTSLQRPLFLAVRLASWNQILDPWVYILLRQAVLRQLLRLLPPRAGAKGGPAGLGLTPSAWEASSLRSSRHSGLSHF

[4] = biological target: Prostaglandin E2 receptor EP2 subtype (Homo sapiens, UniProt P43116); test: Agonist activity at human EP2 receptor expressed in HEK293 cells by calcium-5 dye based FLIPR assay
Sequence of Prostaglandin E2 receptor EP2 subtype (P43116 whole entry): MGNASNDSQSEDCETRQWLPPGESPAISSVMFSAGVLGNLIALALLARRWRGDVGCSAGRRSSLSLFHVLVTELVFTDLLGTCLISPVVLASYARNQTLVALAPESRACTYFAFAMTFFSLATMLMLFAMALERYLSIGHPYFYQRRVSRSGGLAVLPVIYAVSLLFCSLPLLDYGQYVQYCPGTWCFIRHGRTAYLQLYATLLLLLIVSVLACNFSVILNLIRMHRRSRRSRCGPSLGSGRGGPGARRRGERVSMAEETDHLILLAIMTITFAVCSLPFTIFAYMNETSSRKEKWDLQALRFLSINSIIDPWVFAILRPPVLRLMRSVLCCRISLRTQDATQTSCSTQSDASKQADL

[5] = biological target: T3, Prostaglandin E2 receptor EP3 subtype (Homo sapiens, UniProt P43115); test: Agonist activity at human EP3 receptor expressed in HEK293 cells by calcium-5 dye based FLIPR assay
T3 sequence (P43115 whole entry): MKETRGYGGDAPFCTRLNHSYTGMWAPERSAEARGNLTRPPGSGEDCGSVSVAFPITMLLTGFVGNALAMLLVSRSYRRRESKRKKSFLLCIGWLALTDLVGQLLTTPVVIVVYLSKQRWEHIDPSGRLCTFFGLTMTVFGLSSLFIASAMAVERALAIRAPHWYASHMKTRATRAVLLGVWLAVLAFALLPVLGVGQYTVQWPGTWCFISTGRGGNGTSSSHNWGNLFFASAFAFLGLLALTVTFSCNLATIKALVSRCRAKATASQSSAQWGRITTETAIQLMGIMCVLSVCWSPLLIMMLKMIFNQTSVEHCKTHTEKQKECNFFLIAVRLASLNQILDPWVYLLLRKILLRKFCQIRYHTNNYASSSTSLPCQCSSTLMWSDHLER

T1 sequence (P35408 whole entry): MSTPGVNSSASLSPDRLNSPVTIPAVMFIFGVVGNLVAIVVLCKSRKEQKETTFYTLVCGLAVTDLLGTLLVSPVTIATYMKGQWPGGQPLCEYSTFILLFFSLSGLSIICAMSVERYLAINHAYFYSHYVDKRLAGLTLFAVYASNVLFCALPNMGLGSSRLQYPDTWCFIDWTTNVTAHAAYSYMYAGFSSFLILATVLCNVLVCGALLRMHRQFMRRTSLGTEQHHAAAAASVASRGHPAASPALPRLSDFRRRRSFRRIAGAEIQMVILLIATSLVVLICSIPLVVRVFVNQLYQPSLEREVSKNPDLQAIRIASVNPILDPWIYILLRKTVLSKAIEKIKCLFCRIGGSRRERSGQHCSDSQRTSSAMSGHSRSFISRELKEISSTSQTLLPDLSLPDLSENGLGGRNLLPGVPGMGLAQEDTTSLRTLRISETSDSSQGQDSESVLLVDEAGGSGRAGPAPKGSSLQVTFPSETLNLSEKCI

| SMILES | EC50 [1] | Emax [2] | EC50 [3] | EC50 [4] | EC50 [5] |
| --- | --- | --- | --- | --- | --- |
| CCCCCC(O)CCc1cccc(=O)n1CCCCCCC(=O)O (centres undefined) | 550 nM | 103% | 2350 nM | > 10000 nM | 2700 nM |
| CCCCCC(O)CCc1c(Cl)cc(Cl)c(=O)n1CCc1ccc(C(=O)O)cc1 (centres undefined) | 4.9 nM | 138% | > 10000 nM | 1500 nM | > 10000 nM |
| CCCCCC(O)/C=C/c1c(Cl)cc(Cl)c(=O)n1CCc1ccc(C(=O)O)cc1 (single isomer, unassigned; ent-9) [listing 1 of 2 here] | 60 nM | – | – | – | – |
| CCCCCC(O)/C=C/c1c(Cl)cc(Cl)c(=O)n1CCc1ccc(C(=O)O)cc1 (racemic) [listing 1 of 2 here] | – | 129% | – | – | – |
| CCCCCC(O)/C=C/c1c(Br)cc(Br)c(=O)n1CCCCCCC(=O)O (centres undefined) | 360 nM | 99% | > 10000 nM | > 10000 nM | > 10000 nM |
| CCCCCC(O)/C=C/c1c(Cl)cc(Cl)c(=O)n1CCCCCCC(=O)O (centres undefined) | 160 nM | 123% | > 10000 nM | > 10000 nM | > 10000 nM |
| CCCCCC(O)/C=C/c1c(Cl)cc(Cl)c(=O)n1CCc1ccc(C(=O)O)cc1 (stereo in doubt; 9) [listing 1 of 2 here] | 13 nM | – | – | – | – |
| CCCCCC(O)/C=C/c1c(Cl)cc(Cl)c(=O)n1CCc1ccc(C(=O)O)cc1 (single isomer, unassigned; ent-9) [listing 2 of 2 here] | – | 136% | – | – | – |
| CCCCCC(O)/C=C/c1c(Cl)cc(Cl)c(=O)n1CCc1ccc(C(=O)O)cc1 (stereo in doubt; 9) [listing 2 of 2 here] | – | 146% | – | – | – |
| CCCCCC(O)/C=C/c1c(Cl)cc(Cl)c(=O)n1CCc1ccc(C(=O)O)cc1 (racemic) [listing 2 of 2 here] | 7 nM | – | > 10000 nM | > 10000 nM | > 10000 nM |
| CCCCCC(C)(O)/C=C/c1c(Cl)cc(Cl)c(=O)n1CCc1ccc(C(=O)O)cc1 (centres undefined) | 29 nM | 139% | > 10000 nM | 4700 nM | > 10000 nM |
